From the NIST ThermoML archive (doi:10.1016/j.tca.2016.09.005)

Assay: xn = mol fraction of the nth substance listed
Details: 100 kPa, Liquid; for speed of sound: Frequency=3 MHz, Sing-around technique in a fixed-path interferometer; for mass density: Vibrating tube method

OCCCO [propan-1,3-diol] + CCO
Details | mass density, 303.15 K [kg/m3] | mass density, 313.15 K [kg/m3] | speed of sound, 303.15 K [m/s] | speed of sound, 313.15 K [m/s]
x2 = 0 | 1046.36 | 1040.07 | 1613.6 | 1591.1
x2 = 0.05 | 1037.07 | 1030.71 | 1595.7 | 1572.9
x2 = 0.1 | 1027.48 | 1021.03 | 1576.5 | 1553.2
x2 = 0.15 | 1017.39 | 1010.85 | 1556.8 | 1533.1
x2 = 0.2 | 1006.78 | 999.86 | 1536.5 | 1511
x2 = 0.2499 | 996.35 | 989.64 | 1515.3 | 1490.6
x2 = 0.3004 | 985.17 | 978.36 | 1493.3 | 1468.1
x2 = 0.3502 | 973.69 | 966.78 | 1470.9 | 1445.3
x2 = 0.4 | 961.9 | 954.88 | 1447.8 | 1421.7
x2 = 0.4501 | 949.5 | 942.36 | 1423.8 | 1397.1
x2 = 0.5004 | 936.66 | 929.42 | 1399 | 1371.7
x2 = 0.5501 | 923.88 | 916.52 | 1374.6 | 1346.8
x2 = 0.6001 | 910.16 | 902.67 | 1348.8 | 1320.4
x2 = 0.65 | 896.16 | 888.54 | 1323.2 | 1294.2
x2 = 0.7 | 881.42 | 873.66 | 1296.4 | 1266.8
x2 = 0.7503 | 866.15 | 858.23 | 1269.4 | 1239.1
x2 = 0.8001 | 850.47 | 842.41 | 1242 | 1211.1
x2 = 0.8502 | 833.92 | 825.7 | 1214.2 | 1182.7
x2 = 0.9 | 817.24 | 808.85 | 1186.3 | 1154
x2 = 0.95 | 799.79 | 791.23 | 1157.9 | 1125
